In series [1] the test system is Halotydeus destructor susceptible population. Kind of series: Coated plastic vial bioassay, redlegged earth mite, susceptible population. The class given is in vivo. Conditions: for LC50: Halotydeus destructor, read-out: LC50 (mg a.i./L). How it is done:
The efficacy of flavesone against H. destructor was assessed using the glass vial technique developed by Hoffmann et al. (1997, Exp. Appl. Acarol., 21:151-162), adapted for plastic vials. A susceptible population of mites was collected from capeweed (Arctotheca calendula) at a Victorian site (37° 40′33″S, 145° 07′ 45″E) that had no known history of insecticide application. Following collection, samples were stored in small plastic containers with leaf material and paper towel to absorb excess moisture. Containers were kept at 4° C. prior to testing.
(§1) The test compositions included 0.1% Tween 20 non-ionic surfactant to aid the spread of insecticides when coating plastic vials. This concentration of Tween 20 has been previously shown to have no toxic effect on H. destructor. For each insecticide concentration tested, 3, 10, 30, 100, 300, 1000, 3000 and 10000 mg a.i./L (ppm), approximately 10 mL of solution was poured into a 15 mL plastic vial and swirled to ensure a complete coating, with excess liquid removed. Eight vials were coated per concentration and were left to dry overnight. Control vials were treated in the same way but with water used in place of test composition.
Eight susceptible H. destructor mites were then placed into each vial along with a leaf of common vetch (Vicia sativa). The leaf was added to provide food and increase humidity. Vials were then sealed with a lid and placed at 18° C. After 4, 6, 8 and 24 hours of exposure, the mites were scored as alive (moving freely), incapacitated (inhibited movement), or dead (no movement over a 5 second period). […]
(§2) The data produced in the assays were assessed for concentrations that caused 50, 90 and 99% mortality (lethal concentration, LC), together with 95% confidence intervals (CIs) and were estimated from observations of mortality after 24 hours exposure using a binomial logistic regression (Robertson & Preisler, 1992, Pesticide Bioassays with Arthropods. CRC: Boca Raton; Venables & Ripley, 2002, Modern Applied Statistics with S. Springer: New York). Population differences were tested by comparing the change in model deviance with and without the population factor (different regression intercepts for each population). Differences in regression slopes between populations were tested by comparing the change in model deviance with and without the population×dose interaction term. The resistance ratio of the insecticide-resistant population was estimated as the ratio of its LC50 to that of the susceptible population. All analyses were performed using R 3.3. (R Core Team 2017, R: A language and environment for statistical computing. R Foundation for Statistical Computing, Vienna, Austria. http://www.R-project.org).

The subject of series [2] is Halotydeus destructor resistant population (synthetic pyrethroid resistance). Kind of series: Coated plastic vial bioassay, redlegged earth mite, resistant population. The class given is in vivo. To be noted: 24 hours exposure; for LC50: Halotydeus destructor, 24 h. How it is done:
as §1
Eight susceptible H. destructor mites were then placed into each vial along with a leaf of common vetch (Vicia sativa). The leaf was added to provide food and increase humidity. Vials were then sealed with a lid and placed at 18° C. After 4, 6, 8 and 24 hours of exposure, the mites were scored as alive (moving freely), incapacitated (inhibited movement), or dead (no movement over a 5 second period).
The resistant population of H. destructor was collected from a lucerne paddock in the Upper South-East district of South Australia, where resistance to synthetic pyrethroids was confirmed in late 2016.
as §2

The subject of series [3] is Rhyzopertha dominica strain QRD1440 (resistant to OP protectants and pyrethroids). Kind of series: Grain protectant bioassay on treated wheat, resistant lesser grain borer. To be noted: Example 5, QRD1440, replicates A, B, C; for F1 Progeny count No. dead/total: further 6 weeks.
For series [4], the system named is Rhipicephalus microplus larvae, susceptible non-resistant field strain (NRFS). Kind of series: Larval packet test (LPT), cattle tick larvae, susceptible strain. The class given is in vivo. To be noted: for LC50 (ppm) / LC99 (ppm): NRFS, 24 hours, Probit analysis; for mortality at 1250 ppm: 1,250 ppm. On the procedure:
The larval packet test (LPT) is a modification of that first described by Stone and Haydock (1962, Bull. Entomol. Res., 563-578, http://dx.doi.org/10.1017/5000748530004832X) for evaluation of field resistance in cattle tick (Rhipicephalus microplus) larvae.
The first LPT assay was conducted to identify the potential range of flavesone acaricidal activity against larvae of a susceptible non-resistant field strain (NRFS) of R. microplus as a reference strain using a wide range of concentrations (1 in 10 in series).
The test compound, flavesone, 6-isobutyryl-2,2,4,4-tetramethylcyclohexane-1,3,5-trione, 96.7%, was used. As its volatility/evaporative properties were unknown, the LPT method was modified to incorporate the use of suitably-sized polyethylene plastic sheets to envelop the larval packets, minimizing exposure of the test active to the atmosphere.
In addition, the use of the solvent trichloroethylene (TCE) was removed to avoid the time required for evaporation in the preparation of test papers. The test solutions were prepared in olive oil only at the diluent and the papers immediately enveloped in the plastic sheets and sealed with bulldog clips to minimize evaporation.
A stock solution with a concentration of 100,000 ppm (10%) flavesone was prepared in olive oil as the diluent (1.035 mL flavesone (96.7%) to 8.965 mL olive oil) and then further diluted 1 in 10 in series to also give 10,000 ppm, 1,000 ppm, 100 ppm, 10 ppm and 1 ppm concentration. The negative control was olive oil only. No positive control was included in this experiment. Due to the viscosity of the olive oil, all solutions were prepared using reverse pipetting technique.
(§3) Filter papers (75 mm×85 mm Whatman® No. 541), with grid patterns, were impregnated on ½ of the paper with 225 μL of each solution using a micro-pipette and immediately folded in half, enveloped in polyethylene plastic and sealed with 3 bulldog clips. The impregnated papers were kept at room temperature on aluminium trays for a minimum of 60 minutes to allow for dispersal across the grid pattern of the paper prior to aliquoting of larvae. The packets were prepared in duplicate for each concentration, including the negative control.
An 8 dram vial containing approximately 20,000 hatched 7-21 day old NRFS larvae (about 1 g eggs) was opened and set up on a moated tray with a small amount of detergenated water, about 15 to 30 minute before use. Only larvae that migrated to the top of the vial were used in the assay.
(§4) Aliquots of approximately 100 larvae were placed into each packet using plastic disposable forceps and the packets resealed and incubated and 27° C. and 85% relative humidity (RH).
(§5) After 24 hours, the larval packets were opened and the numbers of dead and live larvae were counted under a magnification lamp. Percentage mortality was calculated and, where applicable, corrected using Abbott's Formula (Abbott, 1925, J. Economic Entomology, 18:256-257): […]
(§6) LC50 and LC99 values were determined by Probit mortality vs log concentration analysis. Probit values were derived from “Transformation of Percentages to Probit's Tables” published by Fisher R. A. and Yates F. (1938).
(§7) The LPT Assay of Example 1 was repeated using a narrow range of concentrations, 1 in 2 series, of flavesone to determine LC50 and LC99 values against the susceptible NRFS and the multi-resistant Tiaro reference strain.
The stock solution of flavesone (100,000 ppm) was diluted 1 in 10 with olive oil (1 mL to 9 mL diluent) to give 10,000 ppm, which was then further diluted 1 in 2 in series (5 mL to 5 mL diluent) to give 5,000 ppm, 2,500 ppm, 1,250 ppm, 625 ppm, 312.5 ppm and 156.25 ppm concentrations. […]

The test system of series [5] is Rhipicephalus microplus larvae, multi-resistant Tiaro reference strain. Kind of series: Larval packet test (LPT), cattle tick larvae, multi-resistant strain. The class given is in vivo. Conditions: Example 2, 24 hours. On the procedure: as §3, §4, §5, §6, §7
The Tiaro strain of R. microplus comprises of about 30% fluazuron, 60.6% cypermethrin (SP), 57.6% flumethrin (SP), 16.2% amitraz (amidine), 11.3% DDT, 9.3% chlorpyrifos (OP) and 2.4% dieldrin resistance [2014 acaricide resistance profiling].
The stock solution of flavesone (100,000 ppm) was diluted 1 in 10 with olive oil (1 mL to 9 mL diluent) to give 10,000 ppm, which was then further diluted 1 in 2 in series (5 mL to 5 mL diluent) to give 5,000 ppm, 2,500 ppm, 1,250 ppm, 625 ppm, 312.5 ppm and 156.25 ppm concentrations.
For the preparation of the positive control, cypermethrin, a stock solution of a concentration of 10,000 ppm was prepared in 2:1 trichloroethylene (TCE)/olive oil as the solvent ([…] cypermethrin, 94.8% purity, to 10 mL solvent) and then further diluted 1 in 2 in series (5 mL to 5 mL solvent) to also give 5,000 ppm, 2,500 ppm, 1,250 ppm, 625 ppm, 312.5 ppm and 156.25 ppm.
The flavesone papers were prepared as in Example 1.
The cypermethrin papers were impregnated with 670 μL of each solution using a micro-pipette and hung on a rack in a fume-hood to allow papers to dry (evaporation of TCE) for a minimum of 60 minutes. The papers were then folded in half and sealed with three bulldog clips, placed on aluminium trays prior to aliquoting the larvae. All packets were prepared in duplicate.
A dose-response relationship was determined at 24 hours contact exposure.
Concentrations of 1,250 ppm, 625 ppm and 312.5 ppm flavesone concentrations prepared for Example 3 were used on the same day of preparation. Duplicate papers were prepared for both the NRFS and Tiaro strains (including negative controls) as described in Example 2.
Mortality was assessed at 48 hours and LC50 and LC99 values were determined by Probit mortality vs log concentration analysis.

Where [6] appears, read: Susceptible population, 24 hours exposure.
The mark [7] stands for this setting: Rhipicephalus microplus, 24 h, Example 2.
[8] abbreviates: Rhipicephalus microplus, 24 h, Example 3.

Structures are written as SMILES. Converted amounts (≈) assume the structure as drawn. “And” between values parts separate entries of the source, which are not always exact repeats. Equal entries are not always repeated. Where two headings read alike, the source gives them in different places.

Here are results for 3 molecules from patent publication US11259522B2, “Control of resistant pests” (priority 2017, dated 2022).

Turning to `Cc1c(COC(=O)[C@@H]2[C@H](/C=C(\Cl)C(F)(F)F)C2(C)C)cccc1-c1ccccc1` (racemic) [Bifenthrin, bifenthrin], the LC50 was found to be 0.04 µg/mL (≈ 0.0946 µM) in series [1] (setting [6]) and 144 µg/mL (≈ 340 µM) in series [2] (Resistant population, read-out: LC50 (mg a.i./L)). Moreover, the figures for the “LC90 (mg a.i./L)” value in series [1] (setting [6]) and in series [2] (Resistant population) were 2.66 mg a.i./L and 5.4 × 10^5 mg a.i./L, respectively. The “LC99 (mg a.i./L)” value is given as 233.10 mg a.i./L in series [1] (setting [6]) and 4.3 × 10^9 mg a.i./L in series [2] (Resistant population). In addition, the “resistance ratio (LC50 of resistant population to that of susceptible population)” value in series [2] was “about 3,500 times”.
Consider `CCOP(=S)(OCC)Oc1nc(Cl)c(Cl)cc1Cl` [Chlorpyrifos, chlorpyrifos, reference compound], for which the LC50 was 0.21 µg/mL (≈ 0.599 µM) in series [1] (24 h) and 1.37 µg/mL (≈ 3.91 µM) in series [2] (read-out: LC50 (mg a.i./L), Resistant population). Further, the “LC90 (mg a.i./L)” value in series [1] (setting [6]) is given as 0.76 mg a.i./L; in series [2] (Resistant population) it was 7.76 mg a.i./L. For the same molecule, the “LC99 (mg a.i./L)” value in series [1] (setting [6]) was 3.18 mg a.i./L; in series [2] (Resistant population), 51.56 mg a.i./L. The “F1 Progeny count No. dead/total” value in series [3] (5 ppm on wheat) is 2/470 and 3/172 and 3/355; in series [3] (10 ppm on wheat), 1/350 and 0/317 and 2/232. Moreover, the “14 Day adult mortality No. dead (total)” value in series [3] (5 ppm on wheat) was 0/50 (2×) and 1/50; in series [3] (10 ppm on wheat), 0/50. Also, the “resistance ratio (LC50 of resistant population to that of susceptible population)” value in series [2] was determined as 6.5 times.
For the molecule `CC1(C)C(C=C(Cl)Cl)C1C(=O)OC(C#N)c1cccc(Oc2ccccc2)c1` (centres unmarked) [Cypermethrin, cypermethrin, reference compound], the “LC50 (ppm)” value is on record as 128 ppm in series [4] (Example 2); 112 ppm in series [4] (Example 3); 3082 ppm in series [5] (Tiaro, Probit analysis). Also, the “LC99 (ppm)” value in series [4] (Example 2) is 540 ppm; in series [4] (Example 3), 317 ppm; in series [5] (Tiaro, Probit analysis) it was >10,000 ppm. Moreover, the mortality (usually the percentage killed) at 2.5 ppm in series [4] (Rhipicephalus microplus, 24 h, Example 2, 2.500 ppm) is 100%; in series [5] (Rhipicephalus microplus, 2.500 ppm) it was 59.7%. Also, the mortality at 156.25 ppm turned out to be 67.3% in series [4] (setting [7]); 79.6% in series [4] (setting [8]); 0.56% in series [5] (Rhipicephalus microplus, 156.25 ppm). Moreover, the mortality at 312.5 ppm in series [4] (setting [7]) was 89%; in series [4] (setting [8]), 99.2%; in series [5] (Rhipicephalus microplus, 312.5 ppm), 20.4%. Further, the mortality at 625 ppm in series [4] (setting [7]) was 99.6%; in series [4] (setting [8]), 100%; in series [5] (Rhipicephalus microplus, 625 ppm), 21.9%. The mortality at 1250 ppm in series [4] (setting [7]) came to 100%; in series [4] (setting [8]), 100%; in series [5] (Rhipicephalus microplus, 1,250 ppm), 20.9%. In addition, the mortality at 5000 ppm in series [4] (Rhipicephalus microplus, 24 h, Example 2, 5,000 ppm) is 100%; in series [5] (Rhipicephalus microplus, 5,000 ppm), 62.2%. Besides, the mortality at 10000 ppm in series [4] (Rhipicephalus microplus, 24 h, Example 2, 10,000 ppm) was found to be 100%; in series [5] (Rhipicephalus microplus, 10,000 ppm), 66.8%. Moreover, the mortality at 39.0625 ppm in series [4] (Rhipicephalus microplus, 24 h, Example 3, 39.0625 ppm) is 0%. This molecule showed a mortality at 78.125 ppm in series [4] (Rhipicephalus microplus, 24 h, Example 3, 78.125 ppm) of 20.6%.
